Assay results: patent US9618453B2, “Aggregation induced emission of fluorescent bioprobes and methods of using the same” (THE HONG KONG UNIVERSITY OF SCIENCE AND TECHNOLOGY, priority 2011, dated 2017)

Legend:
[1] = molecular target: bovine serum albumin (BSA) (Bos taurus, UniProt P02769); assay: Fluorescence labeling of BSA with TPE-SO3 in phosphate buffer; conditions: BSA 5 μM, pH 7.0
Protocol: Fluorescence labeling was carried out by sequentially adding solutions of TPE-SO3 to 100 μL aliquots of BSA solutions. The mixtures were stirred for half an hour prior to taking their spectra.
The PL peak intensities of the BSA prepared with the lowest concentrations of TPE-SO3 were used as the reference and plots of the normalized fluorescence versus the concentrations of TPE-SO3 were obtained (FIG. 22). […] TPE-SO3 is represented by the following chemical formula: […]

[2] = Fluorescence quantum efficiency in the solid state; assay type: physicochemical
Description: (§1) Tetrahydrofuran (THF; Labscan) was distilled under nitrogen from sodium benzophenone ketyl immediately prior to use. Acrylamide was purchased from Bio-Rad. Aminoallyl-dUTP (aa-dUTP), dNTPs, DNase I (RNase-free), DNA Polymerase I, Klenow Fragment exo-, Random Hexamer Primer, Long PCR Enzyme Mix and GeneJET™ PCR Purification Kit, GeneRuler™ 100 bp Plus DNA Ladder (ready-to-use, 100-3000 bp), 6×DNA Loading Dye were purchased from Fermentas (Thermo Scientific). Deep VentR™ exo-DNA Polymerase was purchased from New England Biolabs (NEB). Synthesized oligonucleotides (primers) were purchased from Tech Drogon Limited. GelRed™ Nucleic Acid Gel Stain (10000× in water) was purchased from Biotium. Other chemicals, reagents and solvents were all purchased from Aldrich or Invitrogen. ^1H and ^13C NMR spectra were measured on a Bruker ARX 400 NMR spectrometer using CDCl3 as solvent. High-resolution mass spectra (HRMS) were taken on a Finnigan TSQ 7000 triple quadrupole spectrometer in a MALDI-TOF mode. UV spectra were measured on a Milton Roy Spectronic 3000 Array spectrophotometer. Fluorescence (FL) spectra were recorded on a Perkin-Elmer LS 55 spectrofluorometer. FL quantum yields (ΦF) of amorphous powders of siloles were measured using C-701 Time-Resolved Spectrofluorometer with the integrating sphere as accessory.

[3] = molecular target: horse myoglobin (0 Cys) (Equus caballus, UniProt P68082); assay: Fluorescent labeling of Cys residues of protein with TPEMBR, SDS-PAGE; conditions: 0.5 mM dye
Protocol: (§2) 2.5 μL Tris-HCl (1 M), 2.5 μL TCEP (20 mM), 5 μL BSA (1 mg/mL, 15 μM), and 30 μL urea (8 M in water) was added to a 1.5 mL Eppendorf tube and mixed well. The mixture was incubated at room temperature for 30 min to pre-reduce the disulfide bonds with TCEP. Then, 10 μL of the TPEMBR DMSO stock solution (2.5 mM 5×) was added to the system and made the final volume 50 μL. The reaction mixture was incubated for 3 hours at 50° C. in an Eppendorf Thermomixer. Then, samples were cooled either to room temperature for instant use or frozen for eventual use.
(§3) Specific labeling of Cys residues by TPEMBR was examined through the labeling of proteins with different Cys contents. BSA (35 Cys), yeast enolase (single Cys) and horse myoglobin (0 Cys) were labeled with 0.5 mM of TPEMBR, respectively. The corresponding fluorescent products were analyzed on gel. […] The results further confirmed the specificity of TPEMBR to Cys residue when the working concentration of 0.5 mM was used.

[4] = Quantum efficiency of TPEMBR before and after reaction with dithiothreitol (DTT); assay type: physicochemical; conditions: water/THF solution, water fraction 90 vol %
Protocol: In addition to the enhancement of fluorescence because of its AIE property, TPEMBR becomes even more emissive through the reaction between its bromomethyl group and thiol group of proteins, presumably due to the elimination of the internal heavy atom effect of bromide. […] TPEMBR and DTT in equal amount were dissolved in THF to give a concentration of 10 μM for each component. The mixture was then incubated at room temperature overnight. Photoluminescence intensity and UV absorption of TPEMBR were measured in THF/water mixtures with a water fraction of 90 vol % before and after reacting with DTT. As shown in FIGS. 12a and 12b, the quantum efficiency of TPEMBR in the water/THF solution with a water fraction of 90 vol % was approximately 3 times higher after reacting with DTT.

[5] = molecular target: BSA (35 Cys) (Bos taurus, UniProt P02769); assay: Fluorescent labeling of Cys residues of protein with TPEMBR, SDS-PAGE; design: species or system bovine
Protocol: as §2
In order to ensure that the Cys residues were sufficiently labeled with TPEMBR, a longer reaction time (usually overnight) at or below room temperature was required. Alternatively, the reaction time could be reduced if labeling was carried out at 50° C. To verify the time-dependence of labeling efficiency, bovine serum albumin (BSA) samples were labeled with TPEMBR for different times ranging from 10 min to 4 h and analyzed by SDS-PAGE. The fluorescence intensity of the labeled BSA increased as the reaction time was extended. The maximum intensity under specific labeling conditions was observed after 3 h and remained unchanged even with an additional 1 h of reaction time (FIGS. 11a and 11b). […] The time-dependent labeling effect provides a way to determine the desirable DOL according to different applications by simply controlling the labeling time. Meanwhile, a lower temperature labeling process with a longer reaction time could be a better choice to obtain fluorescent proteins while maintaining their native structures.
BSA samples were subjected to labeling with different dye concentrations. The SDS-PAGE fluorescence intensity of labeled BSA increased with increasing dye concentration. […] Further increasing the dye concentration could give higher fluorescence intensity due to nonspecific labeling. Clearly, the DOL of protein samples can be controlled by varying the dye concentration.
as §3
BSA was labeled by each dye with a series of varying dye/thiol ratios. After the electrophoresis, the gel fluorescent image was taken under UV excitation and the fluorescence intensity was obtained from three independent experiments. Fluorescence intensities normalized with the sample with the lowest dye concentration are plotted versus the dye/thiol ratio (FIG. 16). […] This self-quenching effect is inevitable for self-quenching dyes such as 5-BMF and limits these dyes' application on quantification of proteins. In contrast, detection and quantification of proteins with high contents of Cys can be easily achieved by using AIE active molecules such as TPEMBR.

[6] = Photoluminescence in THF/water mixtures with different water fractions (aggregation induced emission); assay type: physicochemical; conditions: water/THF solution, water fraction 90 vol %
Description: The AIE of TPENCS is illustrated in FIG. 1. […] With water content ranging from 0-70%, the fluorescence intensity remained at a very low level. When the water concentration was in the 80-90 vol % range, a rapid and dramatic increase of the fluorescence intensity with increasing water content was observed (FIG. 1b). The PL intensity of TPENCS in the water/THF solution with a water fraction of 90 vol % was approximately 50-fold higher than that in the mixture with 70% water. The quantum efficiency of TPENCS was 52.2% in the solid state.
Similar to other AIE active molecules, TPEMBR only gave weak emission in good solvents such as THF. […] To quantify the effect of water content on the degree of fluorescent emission enhancement, the photoluminescence intensity of TPEMBR was measured where the fraction of water was increased from 0 to 90 vol %. With the water content in the range of 0-70%, the fluorescent intensity remained at a very low level. With the water fraction reaching the 80-90 vol % range, a rapid and dramatic increase of the fluorescent intensity was observed (FIG. 9b). The photoluminescence intensity of TPEMBR in the water/THF solution with a water fraction of 90 vol % was approximately 50-fold stronger than that in the mixture with 70% water. In the solid state, the quantum efficiency of TPEMBR was determined to be 31.7%.
The AIE of SITC is illustrated in FIGS. 17a and 17b. The wavelength at maximum absorption of SITC was at 363 nm and the emission maximum was at 490 nm. […] To quantify the effect of water content on the elevation of the fluorescent emission, the photoluminescence intensity of SITC was measured with concentration of water increasing from 0 to 90 vol %. With water content ranging from 0-70%, the fluorescent intensity remained at a very low level. When the water concentration was in the 80-95 vol % range, a rapid and dramatic increase of the fluorescent intensity with increasing water content was observed (FIG. 17b). The photoluminescence intensity of SITC in the water/THF solution with a water fraction of 95 vol % was approximately 50-fold higher than that in the mixture with 70% water. The quantum efficiency of SITC was 45.8% in the solid state.
as §1
Structure of dye is confirmed by standard spectroscopic methods (FIGS. 23, 26a, and 27a). In order to confirm TPEITC is AIE-active, we investigated its fluorescence in THF/water mixtures with different water fractions. […] TPEITC molecules with hydrophobic aromatic cores precipitated and became aggregate in the nonsolvent mixture. Aggregation blocks the nonradiative relaxation channels and populates the radiative decay, thus resulting in high luminescence. […]

BSA (35 Cys), sequence (P02769 25-607): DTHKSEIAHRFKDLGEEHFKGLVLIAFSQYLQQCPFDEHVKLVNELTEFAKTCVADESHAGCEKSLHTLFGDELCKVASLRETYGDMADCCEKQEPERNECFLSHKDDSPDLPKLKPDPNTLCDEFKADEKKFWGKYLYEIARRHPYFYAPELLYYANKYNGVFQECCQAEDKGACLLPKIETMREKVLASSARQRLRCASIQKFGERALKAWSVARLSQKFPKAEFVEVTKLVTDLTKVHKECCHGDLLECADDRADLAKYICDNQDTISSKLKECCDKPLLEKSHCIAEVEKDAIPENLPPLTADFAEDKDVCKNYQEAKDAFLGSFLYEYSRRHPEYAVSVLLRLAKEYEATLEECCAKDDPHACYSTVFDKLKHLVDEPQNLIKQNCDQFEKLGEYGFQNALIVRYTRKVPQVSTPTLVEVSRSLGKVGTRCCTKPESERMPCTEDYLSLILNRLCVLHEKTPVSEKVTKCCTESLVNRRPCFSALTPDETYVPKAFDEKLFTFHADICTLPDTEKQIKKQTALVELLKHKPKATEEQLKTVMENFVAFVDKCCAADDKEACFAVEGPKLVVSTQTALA
bovine serum albumin (BSA), sequence (P02769 25-607): as above
horse myoglobin (0 Cys), sequence (P68082 whole entry): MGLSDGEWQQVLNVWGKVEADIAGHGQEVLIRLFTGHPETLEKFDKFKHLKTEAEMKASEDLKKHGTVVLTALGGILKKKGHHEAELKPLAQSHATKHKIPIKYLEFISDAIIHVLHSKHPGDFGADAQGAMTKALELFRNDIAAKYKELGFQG

| SMILES | fluorescence intensity of labeled BSA versus dye concentration [1] | quantum efficiency [2] [%] | emission of labeled protein on gel [3] | quantum efficiency after reacting with DTT relative to before [4] | emission of labeled protein on gel ([5]; 0.5 mM dye) | dye concentration at which maximum intensity was reached ([5]; SDS-PAGE fluorescence intensity of labeled BSA) [mM] | labeling time to maximum fluorescence intensity ([5]; labeling at 50° C., 10 min to 4 h) [h] | self-quenching effect versus dye/thiol ratio ([5]; series of dye/thiol ratios) | PL intensity relative to the mixture with 70% water [6] |
| --- | --- | --- | --- | --- | --- | --- | --- | --- | --- |
| O=S(=O)([O-])CCCOc1ccc(C(=C(c2ccccc2)c2ccc(OCCCS(=O)(=O)[O-])cc2)c2ccccc2)cc1.[Na+].[Na+] (mixture of isomers) [TPE-SO3] | increased continuously | – | – | – | – | – | – | – | – |
| BrCc1ccc(C(=C(c2ccccc2)c2ccccc2)c2ccccc2)cc1 [TPEMBR] | – | 31.7 | no fluorescence at all | approximately 3 times | much higher emission than yeast enolase | ≥ 0.5 | 3 | kept on increasing | approximately 50 fold |
